For 47 compounds, logP, logD and solubility results are on record in the OPERA property sets (Mansouri et al. 2018).

Values after ≈ are worked out from the molar mass of the structure shown.

For orientation: logP means the decadic logarithm of the partition coefficient of the neutral form, usually between octanol and water. A high value points to higher lipophilicity. Take `COC(=O)C(C)Oc1ccc(Oc2ncc(C(F)(F)F)cc2Cl)cc1` (centres undefined): the logP amounted to 4.07.
On the same count and under the same terms, the figure for `CCCCOCC(C)OC(=O)COc1nc(F)c(Cl)c(N)c1Cl` (centres undefined) is 4.17; for `O=C(Nc1ccccc1)Nc1ccnc(Cl)c1` it is 3.2.
A word on the logD: it is lipophilicity at a set pH, counting ionised and neutral species. Lower therefore signals a more hydrophilic compound. `CCS(=O)(=O)c1cccnc1S(=O)(=O)NC(=O)Nc1nc(OC)cc(OC)n1` came in with a logD (pH 5.0) of 0.29.
Usually solubility stands for the dissolved amount per volume that the medium holds. Higher therefore signals much dissolved substance. Where the note is “25 °C”, `CC(C)C1(C)N=C(c2nc3ccccc3cc2C(=O)O)NC1=O` (centres undefined) had a solubility of 0.289 mM (≈ 90 µg/mL).
`CCOP(=S)(Oc1cnc(C(C)(C)C)nc1)OC(C)C` (centres undefined) gave a solubility (pH 7.0, 20 °C) of 0.0173 mM (≈ 5.5 µg/mL).
`CCOc1nc(NC)nc(NC(=O)NS(=O)(=O)c2ccccc2C(=O)OC)n1`: the logD (pH 5.0) turned out to be 1.59. For the setting “pH 5.0, 25 °C”, the solubility was determined as 0.00414 mM (≈ 1.7 µg/mL).
For `CCCN(CC)CC1COC2(CCC(C(C)(C)C)CC2)O1` (centres undefined), for the setting “pH 7.0, 20 °C”, the solubility turned out to be 1.58 mM (≈ 470 µg/mL).
`CCOC(=O)CSc1nc(C(C)(C)C)nn1C(=O)N(C)C` showed a logP of 2.69. In addition, the solubility (pH 7.0, 25 °C) was 1.38 mM (≈ 433 µg/mL).
`CCC(Nc1ncnc(C)c1Cl)c1ccc(OC(F)F)cc1` (centres undefined) showed a solubility of 0.101 mM (≈ 33 µg/mL).
As for `CCC1(CC2(c3cccc(Cl)c3)CO2)C(=O)c2ccccc2C1=O` (centres undefined), the solubility (25 °C) came out at 0.0411 mM (≈ 14 µg/mL).
In the case of `COP(=O)(OC)SCn1c(=O)oc2cc(Cl)cnc21`, the logP was 1.05.
`CCOc1ccccc1OS(=O)(=O)NC(O)=Nc1nc(OC)cc(OC)n1` had a logP of 2.89. Besides, the solubility (pH 5.0, 20 °C) is 0.0653 mM (≈ 26 µg/mL).
Take `O=C(NC(=O)c1c(F)cccc1F)Nc1cc(Cl)c(OC(F)(F)C(F)F)c(Cl)c1`: the logP worked out at 5.68.
Same read-out and setting: in the case of `O=c1oc2ccccc2c(O)c1C1CC(c2ccc(-c3ccc(Br)cc3)cc2)Cc2ccccc21` (centres undefined) it was 8.5; in that of `CN(C(O)=NC(C)(C)c1ccccc1)c1ccccc1`, 3.01.
`CC(Oc1ccc(Oc2ncc(C(F)(F)F)cc2Cl)cc1)C(=O)O` (centres undefined): the solubility (pH 2.6, 25 °C) was 0.12 mM (≈ 43.4 µg/mL).
`CCOP(=O)(SC(C)CC)N1CCSC1=O` (centres undefined) came in with a logP of 1.68.
Consider `CC1(C)OC(c2ccco2)CN1C(=O)C(Cl)Cl` (centres undefined), for which the logP came to 2.12. This compound also had a solubility (20 °C) of 0.708 mM (≈ 197 µg/mL).
For `C[Si](Cn1cncn1)(c1ccc(F)cc1)c1ccc(F)cc1`, the solubility (pH 7.2, 20 °C) was found to be 0.171 mM (≈ 54 µg/mL).
Consider `CON=C(C)c1cccc(Oc2nc(OC)cc(OC)n2)c1C(=O)OC`, for which the logP turned out to be 2.84. This compound also returned a solubility (20 °C) of 0.249 mM (≈ 90 µg/mL).
In turn, `CCOP(=S)(OCC)Oc1ccc(=O)n(-c2ccccc2)n1` gave a logP of 3.2. This compound had a solubility (20 °C) of 0.294 mM (≈ 100 µg/mL).
For the compound `Cc1ccn2nc(S(=O)(=O)Nc3c(F)cccc3F)nc2n1`, for the setting “pH 2.5”, the solubility stood at 0.15 mM (≈ 48.7 µg/mL).
Consider `COc1cc(OC)nc(NC(=O)NS(=O)(=O)c2ncccc2C(=O)N(C)C)n1`, for which the logP amounted to 0.01.
Turning to `CC(C)N(Cc1ccccc1)C(=O)C(C)(C)C`, the logP turned out to be 3. Also, the solubility (pH 7.0, 20 °C) is 3.39 mM (≈ 790 µg/mL).
Regarding `CNC(=O)Oc1cccc(N=CN(C)C)c1.Cl`, where the note is “25 °C”, the solubility amounted to 3190 mM.
The compound `ClC=CCCl` (mixture of isomers) displayed a logP of 2.04.
Take `CCN(CC)c1nc(C)cc(OP(=S)(OC)OC)n1`: under “pH 7.3, 20 °C”, the solubility was 0.0455 mM (≈ 13.9 µg/mL).
As for `CCNP(=S)(OC)O/C(C)=C/C(=O)OC(C)C` (centres undefined), the logP stood at 3.82.
For `O=C(NC(=O)c1c(F)cccc1F)Nc1cc(Cl)c(F)c(Cl)c1F`, the solubility (23 °C) stood at 5.12e-05 mM (≈ 0.0195 µg/mL).
Regarding `FC(F)(F)C(=NOCC1OCCO1)c1ccc(Cl)cc1`, the logP came to 2.9. This compound showed a solubility (20 °C) of 0.0969 mM (≈ 30 µg/mL).
Where the note is “20 °C”, `CCOCCOC(=O)C(C)Oc1ccc(Oc2ncc(C(F)(F)F)cc2Cl)cc1` (centres undefined) yielded a solubility of 0.00134 mM (≈ 0.58 µg/mL).
For the setting “25 °C”, `C#CC(OC(=O)C1C(C=C(C)C)C1(C)C)/C(C)=C/CC` (centres undefined) displayed a solubility of 0.000404 mM (≈ 0.111 µg/mL).
Compound `O=C(O)Cn1c(=O)sc2cccc(Cl)c21` came in with a logP of 1.34.
`O=C(NC(=O)c1c(F)cccc1F)Nc1ccc(Cl)c(Oc2ncc(C(F)(F)F)cc2Cl)c1` registered a solubility (25 °C) below 3.95e-05 mM.
As to `CC1(C)C(C=C(Cl)Cl)C1C(=O)OC(C#N)c1ccc(F)c(Oc2ccccc2)c1` (centres undefined), the solubility (20 °C) is 6.91e-06 mM (≈ 0.003 µg/mL).
For the compound `C#CCN1CC(=O)N(COC(=O)[C@@H]2[C@@H](C=C(C)C)C2(C)C)C1=O`, the logP was determined as 2.9. The compound also displayed a solubility (25 °C) of 0.294 mM (≈ 93.5 µg/mL).
Compound `CCN(Cc1ccc(Cl)nc1)C(=C[N+](=O)[O-])NC` gave a solubility (pH 7.0, 20 °C) of 3100 mM (≈ 840000 µg/mL).
Regarding `CCNc1nc(Cl)nc(NC(C)(C)C)n1`, the logP was found to be 3.21. Besides, the solubility (pH 7.0, 20 °C) came out at 0.0396 mM (≈ 9.09 µg/mL).
Take `CCCCN(CC)c1c([N+](=O)[O-])cc(C(F)(F)F)cc1[N+](=O)[O-]`: the logP came out at 5.29. Moreover, the solubility (25 °C) is 0.000298 mM (≈ 0.1 µg/mL).
The compound `CNC(=O)N(C)c1nnc(C(C)(C)C)s1` displayed a solubility (25 °C) of 10.5 mM (≈ 2400 µg/mL).
Take `O=C(NC(=O)c1c(F)cccc1F)Nc1cc(Cl)c(OC(F)(F)C(F)C(F)(F)F)cc1Cl` (centres undefined): the logP turned out to be 5.12.
`COC(=O)[C@@H](C)N(C(=O)c1ccccc1)c1ccc(F)c(Cl)c1` returned a logP of 3.
Where the note is “25 °C”, `CNC(=O)ON=C(SC)C(=O)N(C)C` yielded a solubility of 1280 mM (≈ 280000 µg/mL).
As for `CCC(C)Nc1c([N+](=O)[O-])cc(C(C)(C)C)cc1[N+](=O)[O-]` (centres undefined), the logP stood at 4.93.
Regarding `CC(C)(SC(=O)N1CCCCC1)c1ccccc1`, the logP turned out to be 4.02. The compound also had a solubility (25 °C) of 0.0759 mM (≈ 20 µg/mL).
Compound `CCSCCSP(=S)(OC)OC` had a logP of 3.15.
